Patent US6537797B1, “Compositions and methods useful in bioremediation of polychlorinated biphenyls” (Indiana University, Advanced Research and Technology …, priority 1999, dated 2003)
Entries after “also recorded” stand apart in the source; their conditions may differ.

Tests used:
Assay type in all cases: cell-based
[1] = system: consortia of bacterial strains from PCB-contaminated tertiary lagoon sludge; assay: Degradation of selected PCB congeners in aerobic enrichment cultures; settings: 100 ppm (w/v) mixture of five PCB congeners, with or without biphenyl cosubstrate; hexane extraction 45 days after inoculation, GC
Text: A consortia of bacterial strains was isolated from tertiary lagoon sludge that was contaminated with PCBs for over twenty five years. The sludge was collected from the Winston-Thomas sewage treatment plant in Bloomington, Ind. PCB-degrading strains were enriched using a minimal medium comprising a 100 ppm (w/v) mixture of the following five PCB congeners as the carbon source: 2,3-dichlorobiphenyl (DCBP), 2,4,4′-trichlorobiphenyl (TCBP), 2,4,6-trichlorobiphenyl, 2,2′,5,5′-tetrachlorobiphenyl, and 2,2′,4,4′,5,5′-hexachlorobiphenyl. Biphenyl was also added to the medium in some samples as an additional carbon source to stimulate the cometabolism of biphenyl and the PCBs. About 30-35 milliliters of the medium was inoculated with 5-10 milliliters of PCB-contaminated sludge and incubated in 160-mL serum bottles sealed with Teflon-coated stoppers. The bottles were incubated horizontally on a shaker table at room temperature. The headspace in the bottles was purged with air once a week to maintain aerobic conditions. Every 4-6 weeks, 10% of the culture was transferred to fresh medium. […] The concentrations of the PCB congeners were determined by extracting bottles with hexane 45 days after inoculation (a single bottle extraction), and analyzing hexane extracts by gas chromatography using a DB-5 column (J&W Scientific, Folsum, Calif.) and an electron capture detector. The results from this analysis are depicted in FIG. 1.

bacterial strain SK-1 [2] = assay: Growth of SK-1 on 2,3-DCBP as sole carbon source and its degradation
Procedure: (§1) Growth of bacterial strains SK-1 and SK-2 on 2,3-DCBP and 3,4-DCBP, respectively, as a sole carbon source was determined using direct counting and an acridine orange staining method. This method involves filtering 0.1 milliliters of culture through a 0.45 micron filter, staining the cells on the filter using a 0.01% acridine orange solution for 3 to 5 minutes, and counting cells on the filter using an epifluorescent microscope at a 1000′ magnification. SK-1+ contained 2,3-dichlorobiphenyl; SK-2+ contained 3,4-dichlorobiphenyl. Control bottles in each case were identical to experimental bottles in that they were inoculated with the cultures but they lacked the appropriate congener. The initial concentration of PCBs was 500 ppm (w/v). The cell numbers of the two isolates increased by 1.5 orders of magnitude in the presence of the DCBPs used as a growth substrate. The degradation of 2,3-DCBP by SK-1 and production of 2,3-dichlorobenzoate is depicted in FIG. 3. The degradation of 3,4-DCBP by SK-2 and production of 3,4-dichlorobenzoate is depicted in FIG. 4.
(§2) The concentrations of chlorobenzoates and dichlorobiphenyls were assessed after hexane extraction of bottles using gas chromatography analysis of the extracts with an electron capture detector. Chlorobenzoates were analyzed using standard columns after derivitization with pentafluorobenzyl bromide. Dichlorobiphenyls were analyzed using a DB-5 column (J&W Scientific, Fulsom, Calif.).
(§3) The data shown in FIGS. 2, 3 and 4 illustrates the nearly complete disappearance of both 2,3-DCBP (0.38 mM initial concentration, FIG. 3) and 3,4-DCBP (0.3 mM initial concentration, FIG. 4) within 10 days of incubation. Duplicate bottles were used and error bars of the pictures represent a standard deviation. Controls contained DCBPs but lacked inoculum. DCBPs were supplied in the bottles using the non-biodegradable carrier heptamethylnonane (HMN).

bacterial strain SK-4 [3] = assay: Growth substrate tests in liquid medium; settings: initial concentration 100 parts per million, except chlorobenzoate 2-3 millimolar
Procedure: (§4) The ability of the four isolated strains to grow on selected polychlorobiphenyls as a sole carbon source was assessed.
(§5) (All tests were conducted in a liquid medium. The initial concentration of the organic substrate was 100 parts per million, except chlorobenzoate, which was 2-3 millimolar).

bacterial strain SK-2 [4] = assay: Growth substrate tests in liquid medium; settings: initial concentration 100 parts per million, except chlorobenzoate 2-3 millimolar
Procedure: as §4, §5

bacterial strain SK-3 [5] = assay: Growth substrate tests in liquid medium; settings: initial concentration 100 parts per million, except chlorobenzoate 2-3 millimolar
Procedure: as §4, §5

bacterial strain SK-1 [6] = assay: Growth substrate tests in liquid medium; settings: initial concentration 100 parts per million, except chlorobenzoate 2-3 millimolar
Procedure: as §4, §5

bacterial strain SK-3 [7] = assay: Biodegradation of commercial PCB mixture Aroclor 1242 as sole carbon source; settings: 12 days; benzoate-grown washed cells; no cosubstrate; GC
Procedure: In addition to testing the ability to use a single PCB congener as a sole carbon source (as described in Example 1), several strains of the isolated bacteria of the invention (SK-1, SK-2, SK-3 and SK-4) were tested for the ability to degrade low chlorinated PCB congeners (dichlorobiphenyls and trichlorobiphenyls) of a commercial PCB mixture in the absence of biphenyl or any other cometabolic substrate as a carbon source.
The ability of SK-1, SK-2, SK-3 and SK-4 to degrade Aroclor® 1242 was assessed using cells which were grown on benzoate and then washed. Briefly, the cells were washed by centrifuging the cells, decanting the supernatant, resuspending the cells in fresh medium, then pelleting the cells using centrifugation again and decanting the supernatant to remove residual benzoate and other carbon sources. Aroclor® 1242 was the sole carbon source provided to the cells.
The degradation of Aroclor® 1242 by SK-3 was monitored using gas is chromatography analysis and the results are depicted in FIG. 12. […] The degraded PCB congeners were identified as follows: Peak #1 was 2,5-DCBP or 2,4-DCBP; Peak #2 was 2,3′-DCBP; and Peak #3 was 2,4′-DCBP. No significant degradation of any PCB congener containing three or more chlorine atoms was observed.

bacterial strain SK-4 [8] = assay: Characterization of SK-4: growth on and degradation of 2,2′-DCBP and 2,4′-DCBP
Procedure: The same methods for determining concentrations of analytes and for the incubation of the bacterial strain with growth substrate described herein for the previous analyses were used in the experiments to characterize SK-4. The concentration of SK-4 cells in the experiments was 1.5×10^7 cells per milliliter and the concentration of 2,2′-DCBP or 2,4′-DCBP was 100 milligrams per liter. […] Ortho-substituted congeners are common degradation products of anaerobic reductive dechlorination of more highly chlorinated PCBs (PCBs comprising more than two chlorine atoms) by anaerobic bacteria.
2,2′-DCBP was supplied at a concentration of 100 milligrams per liter dissolved in heptamethyl nonane (HMN), a non-biodegradable PCB solvent. Controls contained HMN but lacked 2,2′-DCBP.

bacterial strain SK-3 [9] = assay: Characterization of SK-3: growth on and degradation of chlorobiphenyls and chlorobenzoates
Procedure: as §2
The results from this experiment are depicted in FIG. 5.
The growth of SK-3 on 4-chlorobiphenyl (4-CB) was compared with growth on its non-chlorinated form, biphenyl. […] The results from this experiment are depicted in FIG. 6. The concentration of chloride ion was determined using ion chromatography on a standard Dionex ion chromatography column. The concentration of 4-CB was assessed after hexane extraction of bottles by analyzing the hexane extracts using gas chromatography on a DB-5 column (J&W Scientific, Fulsom, Calif.) and an electron capture detector.
The growth of SK-3 on chlorobenzoates was assessed. […] The results from this experiment are depicted in FIG. 7.
The degradation of three different monochlorobiphenyls, (2-CB, 3-CB, and 4-CB) by SK-3 was assessed at 23° C. under aerobic conditions on a shaker table. After incubation of SK-3 with the selected monochlorobiphenyl for 88 hours, the concentrations of chloride and the corresponding chlorobenzoic acids (CBA) was assessed as described herein. The results from this experiment are depicted in FIG. 8.
The growth of SK-3 on dichloro-biphenyls was also assessed. […] The results of this experiment are depicted in FIG. 9.

bacterial strain SK-2 [10] = assay: Growth of SK-2 on 3,4-DCBP as sole carbon source and its degradation
Procedure: as §1, §2, §3

[11] = 1.5×10^7 cells per milliliter, substrate in heptamethyl nonane

| SMILES | Growth of SK-4 on the substrate as sole carbon source (bacterial strain SK-4 [3]) | Growth of SK-2 on the substrate as sole carbon source (bacterial strain SK-2 [4]) | Growth of SK-3 on the substrate as sole carbon source (bacterial strain SK-3 [5]) | Growth of SK-1 on the substrate as sole carbon source (bacterial strain SK-1 [6]) | Degradation of PCB congeners of Aroclor 1242 by SK-3 (bacterial strain SK-3 [7]) | also measured |
| --- | --- | --- | --- | --- | --- | --- |
| Clc1cccc(-c2ccccc2)c1Cl [2,3-DCBP, 2,3-dichlorobiphenyl] | No | No | No | exhibited growth and Yes |  | Degradation of PCB congener in aerobic enrichment cultures [1]: degraded in bottles which lacked a cometabolic substrate; Time to nearly complete disappearance (bacterial strain SK-1 [2]; SK-1, 0.38 mM initial concentration, supplied in heptamethylnonane): ≤ 10 days; Increase of cell numbers in the presence of the DCBP as growth substrate (bacterial strain SK-1 [2]; SK-1, initial concentration 500 ppm (w/v), acridine orange direct counting): 1.5 orders of magnitude |
| O=C(O)c1cccc(Cl)c1Cl [2,3-dichlorobenzoate] | No | No | No | No |  | Production of chlorobenzoate from 2,3-DCBP by SK-1 (bacterial strain SK-1 [2]; 0.38 mM 2,3-DCBP initial concentration): almost stoichiometric |
| Clc1cccc(-c2ccccc2Cl)c1 [2,3′-DCBP] | No | No | No | No | degraded |  |
| Clc1ccc(-c2ccccc2Cl)cc1 [2,4′-DCBP, 2,4′-dichlorobiphenyl] | exhibited growth and Yes | Unlikely | exhibited growth and Yes | Yes | degraded | Growth of SK-4 on the substrate as sole carbon source (bacterial strain SK-4 [8]; 1.5×10^7 cells per milliliter, 100 milligrams per liter): growth; also recorded: ability to grow rapidly; Chloride release on degradation by SK-4 (bacterial strain SK-4 [8]; [11]): production of chloride; Chlorobenzoate production on degradation by SK-4 (bacterial strain SK-4 [8]; [11]): stoichiometric accumulation of a chlorobenzoate; Doubling time of SK-4 grown on the substrate (bacterial strain SK-4 [8]; concentration 0.42 mM, sole carbon source): ~17 h; Growth of SK-3 on the substrate as sole carbon source (bacterial strain SK-3 [9]): able to grow; Doubling time of SK-3 grown on the substrate (bacterial strain SK-3 [9]; concentration 0.27 mM, sole carbon source): approximately 43 hours; Extent of chloride production by SK-3 (bacterial strain SK-3 [9]; growth on 0.27 mM 2,4′-DCBP): 0.49 mM; Production of chlorobenzoates (2-CBA, 4-CBA) during growth of SK-3 (bacterial strain SK-3 [9]; growth on 2,4′-DCBP): not detected |
| Clc1ccc(-c2ccccc2)cc1Cl [3,4-DCBP, 3,4-dichlorobiphenyl] | No | exhibited growth and Yes | No | No |  | Time to nearly complete disappearance (bacterial strain SK-2 [10]; SK-2, 0.3 mM initial concentration, supplied in heptamethylnonane): ≤ 10 days; Increase of cell numbers in the presence of the DCBP as growth substrate (bacterial strain SK-2 [10]; SK-2, initial concentration 500 ppm (w/v), acridine orange direct counting): 1.5 orders of magnitude |
| O=C(O)c1ccc(Cl)c(Cl)c1 [3,4-dichlorobenzoate] | No |  | No |  |  | Time at which concentration of chlorobenzoate produced from 3,4-DCBP by SK-2 reached a maximum, then decreased (bacterial strain SK-2 [10]; 0.3 mM 3,4-DCBP initial concentration): 90 h |
